# Patent US20050209256A1, “Novel beta-turn mimetics as calcitonin gene related peptide receptor antagonists” (priority 2004, published 2005)
# Target: T1, human CGRP receptor (Homo sapiens, UniProt O60894+Q16602)
# T1 construct: SK-N-MC cells that endogenously express the human CGRP receptor; endogenous in cells; host or cells: SK-N-MC cells (membrane homogenates)
# Test: Radioligand binding assay, [125I]-CGRP competition on SK-N-MC cell homogenates
# Details: Binding data, [125I]-CGRP 40 pM, room temperature
# Method: Tissue culture. SK-N-MC cells were grown at 37° C. in 5% CO2 as a monolayer in medium consisting of MEM with Earle's salts and L-glutamine (Gibco) supplemented with 10% fetal bovine serum (Gibco).
# Radioligand binding assays. Cells were rinsed twice with phosphate-buffered saline (155 mM NaCl, 3.3 mM Na2HPO4, 1.1 mM KH2PO4, pH 7.4), and incubated for 5-10 min. at 4° C. in hypotonic lysis buffer consisting of 10 mM Tris (pH 7.4) and 5 mM EDTA. Cells were transferred from plates to polypropylene tubes (16×100 mm), homogenized and centrifuged at 32,000×g for 30 min. Pellets were resuspended in buffer consisting of 50 mM Tris (pH 7.4) and 1 mM EDTA, homogenized, and centrifuged again at 32,000×g for 30 min. Pellets were resuspended in 100 mM Tris-Cl pH 7.5, 10 mM MgCl2, 0.1% mammalian protease inhibitor cocktail (Sigma) and stored at −80° C. until needed. On the day of an experiment, homogenates were thawed and homogenized again. Binding of [^125I]-CGRP (NEN) was carried out in buffer containing 50 mM Tris-Cl pH 7.5, 5 mM MgCl2, 0.5% BSA. Homogenates (3.5 μg protein/well) were incubated with competitor compounds (solubilized in 100% DMSO at 100× their final assay concentrations) for one hour at room temperature. Then [^125I]-CGRP was added (40 pM final concentration) and the reaction incubated for one additional hour at room temperature. Assays were stopped by addition of cold wash buffer (20 mM Tris-Cl pH 7.5, 0.1% BSA) immediately followed by filtration over glass fiber filters (Whatman GF/B) previously soaked in 0.5% PEI. Non-specific binding was defined with 100 nM CGRP.
row,SMILES,IC50 [nM]
1,"CC(=O)c1ccc(NC(=O)N2CCC(=O)N3[C@@H]2CN(CCc2cccc(F)c2)C(=O)[C@@H]3Cc2cc(Br)c(O)c(Br)c2)cc1 [Compound 34, (6S,9aS)-6-(3,5-Dibromo-4-hydroxy-benzyl)-8-[2-(3-fluoro-phenyl)-ethyl]-4,7-dioxo-hexahydro-pyrazino[1,2-a]pyrimidine-1-carboxylic acid (4-acetyl-phenyl)-amide]",1170
2,"CC(=O)c1ccc(NC(=O)N2CCC(=O)N3[C@@H](C4CCNCC4)C(=O)N(CCc4cccc(F)c4)C[C@H]23)cc1 [Compound 43, (6S,9aS)-8-[2-(3-Fluoro-phenyl)-ethyl]-4,7-dioxo-6-piperidin-4-yl-hexahydro-pyrazino[1,2-a]pyrimidine-1-carboxylic acid (4-acetyl-phenyl)-amide]",4000
3,"CC(=O)c1ccc(NC(=O)N2CCC(=O)N3[C@@H]2CN(CCc2cccc(F)c2)C(=O)[C@@H]3Cc2ccccc2)cc1 [Compound 22, (6S,9aS)-6-Benzyl-8-[2-(3-fluoro-phenyl)-ethyl]-4,7-dioxo-hexahydro-pyrazino[1,2-a]pyrimidine-1-carboxylic acid (4-acetyl-phenyl)-amide]",2190
4,"CC[C@@H](C)[C@H]1C(=O)N(CCc2cccc(F)c2)C[C@@H]2N(C(=O)Nc3ccc(C(C)=O)cc3)CCC(=O)N12 [Compound 39, (6S,9aS)-6-(1R-methyl-propyl)-8-[2-(3-fluoro-phenyl)-ethyl]--4,7-dioxo-hexahydro-pyrazino[1,2-a]pyrimidine-1-carboxylic acid (4-acetyl-phenyl)-amide]",233
5,"CCCC[C@H]1C(=O)N(CCc2cccc(F)c2)C[C@@H]2N(C(=O)Nc3ccc(C(C)=O)cc3)CCC(=O)N21 [Compound 26, (6S,9aS)-6-Butyl-8-[2-(3-fluoro-phenyl)-ethyl]-4,7-dioxo-hexahydro-pyrazino[1,2-a]pyrimidine-1-carboxylic acid (4-acetyl-phenyl)-amide]",117
6,"CC(=O)c1ccc(NC(=O)N2CCC(=O)N3[C@@H](C(C)C)C(=O)N(CCc4cccc(F)c4)C[C@H]23)cc1 [Compound 20, (6S,9aS)-8-[2-(3-Fluoro-phenyl)-ethyl]-6-isopropyl-4,7-dioxo-hexahydro-pyrazino[1,2-a]pyrimidine-1-carboxylic acid (4-acetyl-phenyl)-amide]",907
7,"CCSCC1C(=O)N(CCc2cccc(F)c2)C[C@@H]2N(C(=O)Nc3ccc(C(C)=O)cc3)CCC(=O)N12 (stereo in doubt) [Compound 35, (6S,9aS)-6-Ethylsulfanylmethyl-8-[2-(3-fluoro-phenyl)-ethyl]-4,7-dioxo-hexahydro-pyrazino[1,2-a]pyrimidine-1-carboxylic acid (4-acetyl-phenyl)-amide]",244
8,"CC(=O)c1ccc(NC(=O)N2CCC(=O)N3[C@@H]2CN(CCc2cccc(F)c2)C(=O)[C@@H]3CC(C)C)cc1 [Compound 23, (6S,9aS)-8-[2-(3-Fluoro-phenyl)-ethyl]-6-isobutyl-4,7-dioxo-hexahydro-pyrazino[1,2-a]pyrimidine-1-carboxylic acid (4-acetyl-phenyl)-amide]",184
9,"CS(=O)(=O)c1ccc(NC(=O)N2CCC(=O)N3[C@@H](C4CCCCC4)C(=O)N(CCc4ccccc4)C[C@H]23)cc1 [Compound 17, (6S,9aS)-6-Cyclohexyl-4,7-dioxo-8-phenethyl-hexahydro-pyrazino[1,2a]pyrimidine-1-carboxylic acid (4-methanesulfonyl-phenyl)-amide]",417

# Results, then the molecule that gave them:
row,IC50 [nM],SMILES
1,7070,"CC(=O)c1ccc(NC(=O)N2CCC(=O)N3[C@@H](C4CCCCC4)C(=O)N(CCc4cccc(Cl)c4)C[C@H]23)cc1 [Compound 135, (6S,9aS)-8-[2-(3-Chloro-phenyl)-ethyl]-6-cyclohexyl-4,7-dioxo-hexahydro-pyrazino[1,2-a]pyrimidine-1-carboxylic acid (4-acetyl-phenyl)-amide]"
2,3900,"CC(=O)c1ccc(OC(=O)N2CCC(=O)N3[C@@H](C4CCCCC4)C(=O)N(CCc4ccccc4)C[C@H]23)cc1C [Compound 148, (6S,9aS)-6-Cyclohexyl-4,7-dioxo-8-phenethyl-hexahydro-pyrazino[1,2-a]pyrimidine-1-carboxylic acid 4-acetyl-3-methyl-phenyl ester]"
3,320,"CC(=O)c1ccc(NC(=O)N2CCC(=O)N3[C@@H](c4ccc(F)cc4F)C(=O)N(CCc4cccc(F)c4)C[C@H]23)cc1 [Compound 153, (6S,9aS)-6-(2,4-Difluoro-phenyl)-8-[2-(3-fluoro-phenyl)-ethyl]-4,7-dioxo-hexahydro-pyrazino[1,2-a]pyrimidine-1-carboxylic acid (4-acetyl-phenyl)-amide]"
4,400,"CC(=O)c1ccc(NC(=O)N2CCC(=O)N3[C@@H]2CN(CCc2cccc(F)c2)C(=O)[C@@H]3Cc2cc(F)cc(F)c2)cc1 [Compound 55, (6S,9aS)-6-(3,5-Difluoro-benzyl)-8-[2-(3-fluoro-phenyl)-ethyl]-4,7-dioxo-hexahydro-pyrazino[1,2-a]pyrimidine-1-carboxylic acid (4-acetyl-phenyl)-amide]"
5,7400,"CC(=O)c1ccc(OC(=O)N2CCC(=O)N3[C@@H]2CN(CCc2ccccc2)C(=O)[C@@H]3CC2CCCCC2)c(C)c1 [Compound 144, (6S,9aS)-6-Cyclohexylmethyl-4,7-dioxo-8-phenethyl-hexahydro-pyrazino[1,2-a]pyrimidine-1-carboxylic acid 4-acetyl-2-methyl-phenyl ester]"
6,2970,"CC(=O)c1ccc(NC(=O)N2c3cc4ccccc4cc3C(=O)N3[C@@H](C4CCOCC4)C(=O)N(CCc4cccc(F)c4)C[C@H]23)cc1 [Compound 53, (4S,12S)-2-[2-(3-Fluoro-phenyl)-ethyl]-3,5-dioxo-4-(tetrahydro-pyran-4-yl)-1,3,4,12a-tetrahydro-2H,5H-2,4a,12-triaza-naphthacene-12-carboxylic acid (4-acetyl-phenyl)-amide]"
7,363,"CC(=O)c1ccc(NC(=O)N2CCC(=O)N3[C@@H](c4cccc(F)c4F)C(=O)N(CCc4cccc(F)c4)C[C@H]23)cc1 [Compound 154, (6S,9aS)-6-(2,3-Difluoro-phenyl)-8-[2-(3-fluoro-phenyl)-ethyl]-4,7-dioxo-hexahydro-pyrazino[1,2-a]pyrimidine-1-carboxylic acid (4-acetyl-phenyl)-amide]"
8,890,"CC(=O)c1ccc(NC(=O)N2CCC(=O)N3[C@@H](C4CCCCC4)C(=O)N(CCc4ccc(F)cc4)C[C@H]23)cc1 [Compound 122, (6S,9aS)-6-Cyclohexyl-8-[2-(4-fluoro-phenyl)-ethyl]-4,7-dioxo-hexahydro-pyrazino[1,2-a]pyrimidine-1-carboxylic acid (4-acetyl-phenyl)-amide]"
9,3040,"CC(=O)c1ccc(NC(=O)N2CCC(=O)N3[C@@H]2CN(CCc2ccccc2)C(=O)[C@@H]3Cc2ccc(F)c(F)c2)cc1 [Compound 63, (6S,9aS)-6-(3,4-Difluoro-benzyl)-4,7-dioxo-8-phenethyl-hexahydro-pyrazino[1,2-a]pyrimidine-1-carboxylic acid (4-acetyl-phenyl)-amide]"
10,167,"CC(=O)c1ccc(NC(=O)N2CCC(=O)N3[C@@H](c4ccccc4)C(=O)N(CCc4cccc(F)c4)C[C@H]23)cc1 [Compound 46, (6S,9aS)-8-[2-(3-Fluoro-phenyl)-ethyl]-4,7-dioxo-6-phenyl-hexahydro-pyrazino[1,2-a]pyrimidine-1-carboxylic acid (4-acetyl-phenyl)-amide]"
11,665,"CC(=O)c1ccc(NC(=O)N2CCC(=O)N3[C@@H]2CN(CCc2cccc(F)c2)C(=O)[C@@H]3Cc2cc(F)c(F)c(F)c2)cc1 [Compound 56, (6S,9aS)-8-[2-(3-Fluoro-phenyl)-ethyl]-4,7-dioxo-6-(3,4,5-trifluoro-benzyl)-hexahydro-pyrazino[1,2-a]pyrimidine-1-carboxylic acid (4-acetyl-phenyl)-amide]"
12,814,"CC(=O)c1ccc(NC(=O)N2CCC(=O)N3[C@@H]2CN(CCc2cccc(F)c2)C(=O)[C@@H]3Cc2ccc(F)cc2)cc1 [Compound 58, (6S,9aS)-6-(4-Fluoro-benzyl)-8-[2-(3-fluoro-phenyl)-ethyl]-4,7-dioxo-hexahydro-pyrazino[1,2-a]pyrimidine-1-carboxylic acid (4-acetyl-phenyl)-amide]"
13,115,"CC(=O)c1ccc(NC(=O)N2CCC(=O)N3[C@@H](C4CCCCC4)C(=O)N(CCc4cccc(F)c4)C[C@H]23)cc1 [Compound 48, (6S,9aS)-6-Cyclohexyl-8-[2-(3-fluoro-phenyl)-ethyl]-4,7-dioxo-hexahydro-pyrazino[1,2-a]pyrimidine-1-carboxylic acid (4-acetyl-phenyl)-amide]"
14,1730,"O=C1COc2cc(OC(=O)N3CCC(=O)N4[C@@H](C5CCCCC5)C(=O)N(CCc5ccccc5)C[C@H]34)ccc21 [Compound 150, (6S,9aS)-6-Cyclohexyl-4,7-dioxo-8-phenethyl-hexahydro-pyrazino[1,2-a]pyrimidine-1-carboxylic acid 3-oxo-2,3-dihydro-benzofuran-6-yl ester]"
